Reference: patent US20110195845A1, “Constructs for Expressing Herbicide Tolerance Genes, Related Plants, and Related Trait Combinations” (Dow AgroSciences LLC, priority 2008, published 2011)

Assays:
[1] = tested on: Escherichia coli BL21-Star (DE3) with empty pET vector; experiment: Complementation of cell growth on glufosinate, empty pET vector (control); format: cell-based; parameters: key: +++ = Heavy Lawn Growth; ++ = Light lawn growth; + = patchy lawn growth; −− = No Growth; settings: 24 hrs @28 C, 20 uM IPTG
Text: A pET28a(+) expression plasmid containing PAT (v3) was constructed as a positive control. PAT (v3) was cloned as an NcoI-SacI fragment into corresponding restriction sites of pDAB779. Positive clones containing the PAT (v3) gene fragment were verified via restriction enzyme digestion. This construct was labeled as pDAB4434.
(§1) The plasmids, pDAB4434, pDAB4412, and an empty pET vector (control) were transformed into Escherichia coli BL21-Star (DE3) bacterial cells. Expression cultures were initiated with 10-200 freshly transformed colonies into 250 mL LB medium containing 50 μg/ml antibiotic and 75 μM IPTG (isopropyl-[…]). The cultures were grown at 28° C. for 24 hours at 180-200 rpm. Five microliters of the culture was inoculated onto a complex media control and minimal media containing incrementally increasing concentrations of glufosinate and 20 μM IPTG. The cultures were dispersed evenly over the plates and incubated at 28° C. for 24 hours.

[2] = tested on: Escherichia coli BL21-Star (DE3) expressing DSM-2 (v2); experiment: Complementation of cell growth on glufosinate, pDAB4412 (DSM-2 v2); format: cell-based; parameters: bacterial growth on minimal media: key: −− = No Growth; +++ = Distinct Colony Growth; settings: for bacterial growth on minimal media: 24 hrs @28 C, 20 uM IPTG
Method: as §1

[3] = tested on: PAT gene + AAD-12 transformed T1 Arabidopsis; experiment: T1 Arabidopsis response to glufosinate applied postemergence; format: in vivo, Arabidopsis thaliana; settings: 2 WAT
Method: (§2) Seven days after planting (DAP) and again 11 DAP, T1 plants (cotyledon and 2-4-1f stage, respectively) were sprayed with a 0.016% solution of 2,4-D herbicide (456 g ae/L 2,4-D Amine 4, Dow AgroSciences LLC, Indianapolis, Ind.) at a spray volume of 10 ml/tray (703 L/ha) using a DeVilbiss compressed air spray tip to deliver an effective rate of 50 g ae/ha 2,4-D DMA per application. Survivors (plants actively growing) were identified 4-7 days after the final spraying and transplanted individually into 3-inch pots prepared with potting media (Metro Mix 360). Transplanted plants were covered with humidity domes for 3-4 days and placed in a 22° C. growth chamber as before or moved to directly to the greenhouse. Domes were subsequently removed and plants reared in the greenhouse (22±5° C., 50±30% RH, 14 h light:10 dark, minimum 500 μE/m^2s^1 natural+supplemental light) at least 1 day prior to testing for the ability of DSM-2 (v2) to provide glufosinate herbicide resistance.
(§3) T1 plants were then randomly assigned to various rates of glufosinate. For Arabidopsis 140 g ai/ha glufosinate is an effective dose to distinguish sensitive plants from ones with meaningful levels of resistance. Elevated rates were also applied to determine relative levels of resistance (280, 560, or 1120 g ai/ha).
(§4) All glufosinate herbicide applications were applied by track sprayer in a 187 L/ha spray volume. The commercial Liberty™ formulation (200 g ai/L, Bayer Crop Science, Research Triangle Park, N.C.).
(§5) The first Arabidopsis transformations were conducted using DSM-2 (v2) (plant optimized gene). T1 transformants were first selected from the background of untransformed seed using a 2,4-D DMA selection scheme. Over 100,000 T1 seed were screened and 260 2,4-D resistant plants (AAD-12 gene) were identified, equating to a transformation/selection frequency of 0.26% which is slightly higher than the normal range of selection frequency of constructs where AAD-12+2,4-D are used for selection. T1 plants selected above were subsequently transplanted to individual pots and sprayed with various rates of commercial glufosinate herbicide. Table 10 compares the response of DSM-2 (v2) and control genes to impart glufosinate resistance to Arabidopsis T1 transformants. Response is presented in terms of % visual injury 2 WAT. […] Since each T1 is an independent transformation event, one can expect significant variation of individual T1 responses within a given rate. An arithmetic mean and standard deviation is presented for each treatment. Untransformed-wildtype Arabidopsis served as a glufosinate sensitive control. The DSM-2 (v2) gene imparted herbicide resistance to individual T1 Arabidopsis plants. Within a given treatment, the level of plant response varied greatly and can be attributed to the fact each plant represents an independent transformation event. Of important note, at above 140 g ai/ha glufosinate, there were individuals that were unaffected while some were severely affected.

[4] = tested on: DSM-2 (v2) gene + AAD-12 transformed T1 Arabidopsis; experiment: as above; format: in vivo, Arabidopsis thaliana; settings: for % Injury Ave / individuals with % Injury 20-40% / individuals with % Injury <20% / individuals with % Injury >40%: 2 WAT
Method: as §2, §3, §4, §5

[5] = 140 g ai/ha glufosinate postemergence
[6] = 280 g ai/ha glufosinate postemergence
[7] = 560 g ai/ha glufosinate postemergence
[8] = 1120 g ai/ha glufosinate postemergence

SMILES: CP(=O)(O)CCC(N)C(=O)O (centres unmarked) [glufosinate]
- bacterial growth on minimal media ([1]; 250 μg/ml BASTA): −−
- bacterial growth on minimal media ([1]; 500 μg/ml BASTA): −−
- bacterial growth on minimal media ([1]; 1000 μg/ml BASTA): −−
- bacterial growth on minimal media ([1]; 2000 μg/ml BASTA): −−
- bacterial growth on minimal media ([1]; 4000 μg/ml BASTA): −−
- bacterial growth on minimal media ([2]; 250 μg/ml BASTA): +++
- bacterial growth on minimal media ([2]; 500 μg/ml BASTA): +++
- bacterial growth on minimal media ([2]; 1000 μg/ml BASTA): +++
- bacterial growth on minimal media ([2]; 2000 μg/ml BASTA): +++
- bacterial growth on minimal media ([2]; 4000 μg/ml BASTA): +++
- concentration in minimal media at which expression of DSM-2 complemented resistance ([2]; minimal media): 400 µg/mL
- % Injury Ave [3, 5]: 0.0%
- individuals with % Injury 20-40% [3, 5]: 0
- individuals with % Injury <20% [3, 5]: 10
- individuals with % Injury >40% [3, 5]: 0
- % Injury Ave [3, 6]: 0.0%
- individuals with % Injury 20-40% [3, 6]: 0
- individuals with % Injury <20% [3, 6]: 10
- individuals with % Injury >40% [3, 6]: 0
- % Injury Ave [3, 7]: 0.0%
- individuals with % Injury 20-40% [3, 7]: 0
- individuals with % Injury <20% [3, 7]: 10
- individuals with % Injury >40% [3, 7]: 0
- % Injury Ave [3, 8]: 3.0%
- individuals with % Injury 20-40% [3, 8]: 0
- individuals with % Injury <20% [3, 8]: 10
- individuals with % Injury >40% [3, 8]: 0
- % Injury Ave [4, 5]: 0.0%
- individuals with % Injury 20-40% [4, 5]: 0
- individuals with % Injury <20% [4, 5]: 20
- individuals with % Injury >40% [4, 5]: 0
- % Injury Ave [4, 6]: 3.0%
- individuals with % Injury 20-40% [4, 6]: 1
- individuals with % Injury <20% [4, 6]: 19
- individuals with % Injury >40% [4, 6]: 0
- % Injury Ave [4, 7]: 6.0%
- individuals with % Injury 20-40% [4, 7]: 0
- individuals with % Injury <20% [4, 7]: 19
- individuals with % Injury >40% [4, 7]: 1
- % Injury Ave [4, 8]: 13.0%
- individuals with % Injury 20-40% [4, 8]: 1
- individuals with % Injury <20% [4, 8]: 17
- individuals with % Injury >40% [4, 8]: 2
- injury of surviving individuals ([4]; 1,120 g ai/ha glufosinate, many individuals): little or no injury
